From patent US11234964B2, “Use of melatonin for the treatment of tumors” (UNIVERSIDAD DE GRANADA, priority 2017, dated 2022) come the findings set out here.

“Also recorded” adds a separate entry of the source.

One series concerns SCC-9 cells. Kind of series: Mitochondrial function and free radicals in melatonin-resistant cells. It is filed as cell-based. The source says: The relationship between the mitochondrial changes caused by melatonin and the cell death induced by this molecule in these tumor cells was studied. Melatonin increases the number of mitochondria as well as the number of cristae, DNA, and mitochondrial mass. The result is an increase in respiratory chain complexes, and accordingly an increase in oxygen consumption, which is related to an increase in free radicals and oxidative stress reflected by an increase in the GSSG/GSH ratio. However, the antioxidant capacity is not modified. The activity and the expression of antioxidant enzymes such as GPx and the GRd is not modified either. […] To carry out the assays, CAL-27 and SCC9 cells have been used as typical example of head and neck squamous cell carcinoma (HNSCC) cancer cells.

Another series concerns CAL-27 tumor cells. Kind of series: GPx and GRd antioxidant enzyme activity in tumor cells. The format is cell-based. The source says:
The relationship between the mitochondrial changes caused by melatonin and the cell death induced by this molecule in these tumor cells was studied. Melatonin increases the number of mitochondria as well as the number of cristae, DNA, and mitochondrial mass. The result is an increase in respiratory chain complexes, and accordingly an increase in oxygen consumption, which is related to an increase in free radicals and oxidative stress reflected by an increase in the GSSG/GSH ratio. However, the antioxidant capacity is not modified. The activity and the expression of antioxidant enzymes such as GPx and the GRd is not modified either.

For series [1] the following is noted: athymic nude (nu/nu), mouse, in vivo. The method, then:
(§1) For the in vivo assays, athymic nude mice (nu/nu) (Janvier, Pays de la Loire, France) of about 5-6 weeks of age (18-20 g) were used. The animals were held in the animal housing unit of the Biomedical Research Center of University of Granada (CIBM) in sterile conditions and under controlled photoperiod (12:12 h) and temperature (22±1° C.) environments, with ad libitum water and laboratory diet. The handling and transplant of the animals was carried out in a laminar flow biosafety cabinet. The animals were anesthetized with an i.p. injection of ketamine (80 mg/kg) and xylazine (4 mg/kg).
(§2) Xenografts were performed with CAL-27 and SCC9 cells (the latter being resistant to melatonin). Cells enzymatically separated with trypsin-EDTA are resuspended at a concentration of 4×10^6 cells per mouse in PBS. Cell viability is determined by means of the Trypan Blue test. The cells are injected into the left flank of the mouse, with a volume of 200 μL of cell suspension being injected into each mouse with the help of a 1 mL syringe with a needle measuring 16×0.5 mm.
The experimental groups were as follows: • 1. […]
The concentration of melatonin in the tumors was measured after sacrificing the animals after 21 days. When it is injected directly into the tumor, the concentration of melatonin cannot be measured due to the limited amount of sample taking into account that the tumor practically disappears.

Another series relates to tumor cells (CAL-27). Kind of series: Cell death, apoptosis and proliferation of tumor cells in vitro. The format is cell-based. The source says: To carry out the assays, CAL-27 and SCC9 cells have been used as typical example of head and neck squamous cell carcinoma (HNSCC) cancer cells. […] The relationship between the mitochondrial changes caused by melatonin and the cell death induced by this molecule in these tumor cells has been studied. Melatonin increases mitochondrial mass, mitochondrial DNA, the number of mitochondria, as well as the number of mitochondrial cristae. The result is an increase in respiratory chain complexes, and accordingly an increase in oxygen consumption, which is related to an increase in free radicals and oxidative stress. […] In other words, the cytotoxic effects of melatonin in the tumor cells are related to an increase in mitochondrial function, and the increase in mitochondrial function in the tumor cell in turn induces apoptosis processes, which also entails the inhibition of protein synthesis.

The test system of series [2] is tumor cells. The experiment in a line: Melatonin penetration in tumor cells in vitro. The format is cell-based. The following applies: cells incubated with 1500 μM melatonin for 24 hours. The method, then: To carry out the assays, CAL-27 and SCC9 cells have been used as typical example of head and neck squamous cell carcinoma (HNSCC) cancer cells.
In the in-vitro experiments, the tumor cells were incubated with different concentrations of melatonin. It was observed that melatonin readily enters the tumor cells, reaching levels of 450 ng/mg of proteins after incubating the cells with melatonin at a dose of 1500 μM for 24 hours (FIG. 1).

In series [3] the test system is tumor cells. Kind of series: Mitochondrial changes, oxygen consumption and free radicals in tumor cells. It is filed as cell-based. The source says:
The relationship between the mitochondrial changes caused by melatonin and the cell death induced by this molecule in these tumor cells was studied. Melatonin increases the number of mitochondria as well as the number of cristae, DNA, and mitochondrial mass. The result is an increase in respiratory chain complexes, and accordingly an increase in oxygen consumption, which is related to an increase in free radicals and oxidative stress reflected by an increase in the GSSG/GSH ratio. However, the antioxidant capacity is not modified. The activity and the expression of antioxidant enzymes such as GPx and the GRd is not modified either. […] In other words, mitochondrial activity increases, and accordingly free radicals which induce cell death also increase. To carry out the assays, CAL-27 and SCC9 cells have been used as typical example of head and neck squamous cell carcinoma (HNSCC) cancer cells.

The subject of series [4] is CAL-27 and SCC9 cells xenografts. Kind of series: Tumor volume in xenografted mice (photographs, NMR analysis). Conditions: for tumor volume: intratumoral injection. The format is in vivo, athymic nude mice (nu/nu). As to the method:
as §1, §2
The body weight and tumor size are measured and recorded two or three times a week throughout the experiment. The tumor volume is calculated using the following formula: ½ (L×W2) (mm^3), where L is the length and W is the width. After the appearance of a tumoral node (100 mm^3), the mice carrying the tumors are randomly assigned to several groups.
The experimental groups were as follows: • 1. Mouse with untreated tumor • 2. Mouse with tumor treated with subcutaneously administered melatonin (s.c.) at a dose of 300 mg/kg (4.5% w/v melatonin solution). The concentration of melatonin in the tumor when melatonin is administered through this route is 10 ng/mg of proteins. • 3. Mouse with tumor treated with administered intratumorally melatonin (60 μl of a 0.1% w/v melatonin solution) fora tumor volume of 100 mm^3. 0.1% of melatonin is the minimum effective dose (in vitro) for inducing 80% cell death. When 0.1% of melatonin is administered, a concentration of 450 ng/mg of proteins is reached in the tumor. • 4. Mouse with tumor treated with intratumorally melatonin administered (60 μl of a 4.5% melatonin solution) for a tumor volume of 100 mm^3.
Therefore, once the tumor reached the indicated volume of 100 mm^3, it is treated with melatonin daily for 21 days according to the following protocol: • A. Injected s.c. (300 mg/kg which is equivalent to a 4.5% solution) • B. Injected directly into the tumor (60 μl of a 0.1% melatonin solution) • C. Injected directly into the tumor (60 μl of a 4.5% melatonin solution) • D. Injected directly into the tumor (60 μl of a 0.1% melatonin solution) until the complete disappearance of the tumor (28 days). • E. Photographs of the tumor were taken at the end of the treatment of each of the groups. […]

`COc1ccc2[nH]cc(CCNC(C)=O)c2c1` [melatonin, N-acetyl-5-methoxytryptamine]: the “mitochondrial oxygen consumption and production of free radicals” value with SCC-9 cells (SCC-9 cells, compared with CAL-27) is “less production of reactive oxygen species; also recorded: much lower”. Besides, in the series on SCC-9 cells (SCC-9 head and neck cancer cells), the “sensitivity of cells to melatonin” value is on record as “more resistant”. In addition, in the series with CAL-27 tumor cells, the SOD entry is on record as “slight increase” and the antioxidant capacity result is recorded as “not modified”. Further, the “GPx and GRd antioxidant enzyme activity” value with CAL-27 tumor cells (CAL-27 tumor cells) was “not modified; also recorded: does not increase”. Also, in series [1], the “concentration of melatonin reached in the tumor” value is 450 ng/mg of proteins. For the same compound, in the series with tumor cells (CAL-27), the cell cycle result is “stopping of cell cycle in the S and G2 phases”; the cell proliferation result was “Inhibition”. Besides, the “size and number of colonies of tumor cells” value with tumor cells (CAL-27) (CAL-27 irradiated and treated with melatonin) is “significant decrease”. Also, the “minimum effective dose (in vitro) for inducing 80% cell death” value with tumor cells (CAL-27) (in vitro) stood at 0.1%. Besides, the apoptosis result in the series with tumor cells (CAL-27) (tumor cells, high concentrations) is “increases apoptosis in a dose and time dependent manner”. In addition, the “melatonin levels in tumor cells” value in the series with tumor cells [2] is 450 ng/mg of proteins. In addition, in the series on tumor cells [3], the ATP production entry was “does not increase”, the “GSSG/GSH ratio (oxidative stress)” value was “increase”, the free radicals entry was “increase” and the “intermediate products of the Krebs cycle (metabolomics)” value is “increase”. In the series on tumor cells [3], the “mitochondrial DNA” value is listed as “increases”; the mitochondrial mass result is “increases”; the “number of mitochondria and number of cristae” value was “increases”; the oxygen consumption entry is “increase”. Also, the tumor volume result in series [4] (21 days after treatment) is recorded as “decreases drastically; also recorded: disappearing almost completely; also recorded: the decrease in tumor volume is so drastic that the tumor can hardly be observed”. In addition, the tumor volume entry in series [4] (28 days after treatment) is given as “completely disappears; also recorded: disappears completely; also recorded: virtually disappeared”. Also, the “necrotic areas in tumors (NMR images)” value in series [4] (s.c. administered melatonin) is given as “certain necrotic areas are observed”. In series [4] (subcutaneous (systemic route), 300 mg/kg, 21 days), the “tumor volume with respect to the control” value is recorded as “decreases very little; also recorded: the decrease in tumor volume is much lower; also recorded: the tumor volume decreases, although the effect is not very significant”.
